Measured values from article PMC3089805 (Chemmedchem, 2010).
Converted amounts (≈) assume the structure as drawn.

Key:
H. pylori strain 26695 = experiment: MIC determination, liquid microdilution, H. pylori; assay type: cell-based; details: Helicobacter pylori, 26695, 27 h, read-out: MIC H. pylori
C. jejuni strain H840 = experiment: MIC determination, liquid microdilution, C. jejuni; assay type: cell-based; details: Campylobacter jejuni, H840, 27 h, read-out: MIC C. jejuni

SMILES	MIC (H. pylori strain 26695) [µM]	MIC (C. jejuni strain H840) [µM]
O=C(Nc1ncc([N+](=O)[O-])s1)c1cccc([N+](=O)[O-])c1O [Analogue 34, 2-Hydroxy-3-nitro-N-(5-nitrothiazol-2-yl)benzamide]	19.3 (≈ 5.99 µg/mL)	103 (≈ 32 µg/mL)
O=C(Nc1ncc([N+](=O)[O-])s1)c1c(F)c(F)c(F)c(F)c1F [Analogue 16, 2,3,4,5,6-Pentafluoro-N-(5-nitrothiazol-2-yl)benzamide]	7.4 (≈ 2.51 µg/mL)	–
O=C(Nc1ncc([N+](=O)[O-])s1)c1ccc([N+](=O)[O-])cc1 [Analogue 27, 4-Nitro-N-(5-nitrothiazol-2-yl)benzamide]	1.3 (≈ 0.383 µg/mL)	13.6 (≈ 4 µg/mL)
CCCCCCCC(=O)Nc1ncc([N+](=O)[O-])s1 [Analogue 51, N-(5-Nitrothiazol-2-yl)octanamide]	1.4 (≈ 0.38 µg/mL)	5.5 (≈ 1.49 µg/mL)
CCCCCCCCCC(=O)Nc1ncc([N+](=O)[O-])s1 [Analogue 52, N-(5-Nitrothiazol-2-yl)decanamide]	0.8 (≈ 0.24 µg/mL)	107 (≈ 32 µg/mL)
O=C(Nc1ncc([N+](=O)[O-])s1)c1ccc(-c2ccccc2)s1 [Analogue 80, N-(5-Nitrothiazol-2-yl)-5-phenylthiophene-2-carboxamide]	1.5 (≈ 0.497 µg/mL)	72.4 (≈ 24 µg/mL)
O=C(Nc1ncc([N+](=O)[O-])s1)c1ccc(-c2cccc(Cl)c2)s1 [Analogue 81, 5-(3-Chlorophenyl)-N-(5-nitrothiazol-2-yl)thiophene-2-carboxamide]	0.7 (≈ 0.256 µg/mL)	5.5 (≈ 2.01 µg/mL)
O=C(Nc1ncc([N+](=O)[O-])s1)[C@@H]1C[C@H]1c1ccccc1 [Analogue 46, (1R,2R)-N-(5-Nitrothiazol-2-yl)-2-phenylcyclopropanecarboxamide]	13.8 (≈ 3.99 µg/mL)	2.6 (≈ 0.752 µg/mL)
O=C(C=Cc1ccccc1)Nc1ncc([N+](=O)[O-])s1 [Analogue 54, N-(5-Nitrothiazol-2-yl)cinnamamide]	0.3 (≈ 0.0826 µg/mL)	2.7 (≈ 0.743 µg/mL)
O=C(/C=C/c1ccc(C(F)(F)F)cc1)Nc1ncc([N+](=O)[O-])s1 [Analogue 55, (E)-N-(5-Nitrothiazol-2-yl)-3-(4-(trifluoromethyl)phenyl)acrylamide]	0.5 (≈ 0.172 µg/mL)	93.2 (≈ 32 µg/mL)
O=C(Nc1ncc([N+](=O)[O-])s1)c1ccc(F)c([N+](=O)[O-])c1 [Analogue 37, 4-Fluoro-3-nitro-N-(5-nitrothiazol-2-yl)benzamide]	1.6 (≈ 0.5 µg/mL)	51.2 (≈ 16 µg/mL)
O=C(CCc1ccccc1)Nc1ncc([N+](=O)[O-])s1 [Analogue 44, N-(5-Nitrothiazol-2-yl)-3-phenylpropanamide]	21.6 (≈ 5.99 µg/mL)	1.8 (≈ 0.499 µg/mL)
CC1=C(C(=O)Nc2ncc([N+](=O)[O-])s2)Cc2ccccc21 [Analogue 47, 3-Methyl-N-(5-nitrothiazol-2-yl)indene-2-carboxamide]	1.7 (≈ 0.512 µg/mL)	26.5 (≈ 7.99 µg/mL)
O=C(Nc1ncc([N+](=O)[O-])s1)c1ccccc1C(F)(F)F [Analogue 22, N-(5-Nitrothiazol-2-yl)-2-(trifluoromethyl)benzamide]	1.6 (≈ 0.508 µg/mL)	18.9 (≈ 6 µg/mL)
COc1cc([N+](=O)[O-])ccc1C(=O)Nc1ncc([N+](=O)[O-])s1 [Analogue 33, 2-Methoxy-4-nitro-N-(5-nitrothiazol-2-yl)benzamide]	0.6 (≈ 0.195 µg/mL)	9.3 (≈ 3.02 µg/mL)
O=C(Nc1ncc([N+](=O)[O-])s1)c1ccc(-c2cccc([N+](=O)[O-])c2)o1 [Analogue 69, 5-(3-Nitrophenyl)-N-(5-nitrothiazol-2-yl)furan-2-carboxamide]	6.9 (≈ 2.49 µg/mL)	16.7 (≈ 6.02 µg/mL)
O=C(CCCc1ccccc1)Nc1ncc([N+](=O)[O-])s1 [Analogue 45, N-(5-Nitrothiazol-2-yl)-4-phenylbutanamide]	0.3 (≈ 0.0874 µg/mL)	1.3 (≈ 0.379 µg/mL)
O=C(Cc1ccccc1)Nc1ncc([N+](=O)[O-])s1 [Analogue 43, N-(5-Nitrothiazol-2-yl)-2-phenylacetamide]	0.7 (≈ 0.184 µg/mL)	11.4 (≈ 3 µg/mL)
O=C(Nc1ncc([N+](=O)[O-])s1)c1ccc(C(F)(F)F)cc1[N+](=O)[O-] [Analogue 36, 2-Nitro-N-(5-nitrothiazol-2-yl)-4-(trifluoromethyl)benzamide]	8.3 (≈ 3.01 µg/mL)	88.3 (≈ 32 µg/mL)
O=C(Nc1ncc([N+](=O)[O-])s1)c1cc2cc([N+](=O)[O-])ccc2o1 [Analogue 73, 5-Nitro-N-(5-nitrothiazol-2-yl)benzofuran-2-carboxamide]	4.5 (≈ 1.5 µg/mL)	4.5 (≈ 1.5 µg/mL)

Continued, values first:

MIC (H. pylori strain 26695) [µM]	MIC (C. jejuni strain H840) [µM]	SMILES
1.8 (≈ 0.513 µg/mL)	5.3 (≈ 1.51 µg/mL)	O=C(Nc1ncc([N+](=O)[O-])s1)c1ccc(F)c(F)c1 [Analogue 10, 3,4-Difluoro-N-(5-nitrothiazol-2-yl)benzamide]
1.1 (≈ 0.385 µg/mL)	22.9 (≈ 8.01 µg/mL)	O=C(Nc1ncc([N+](=O)[O-])s1)c1ccc(-c2cccc(Cl)c2)o1 [Analogue 66, 5-(3-Chlorophenyl)-N-(5-nitrothiazol-2-yl)furan-2-carboxamide]
0.4 (≈ 0.114 µg/mL)	7 (≈ 2 µg/mL)	O=C(Nc1ncc([N+](=O)[O-])s1)c1ccc(F)cc1F [Analogue 9, 2,4-Difluoro-N-(5-nitrothiazol-2-yl)benzamide]
0.9 (≈ 0.241 µg/mL)	11.2 (≈ 2.99 µg/mL)	O=C(Nc1ncc([N+](=O)[O-])s1)c1cccc(F)c1 [Analogue 7, 3-Fluoro-N-(5-nitrothiazol-2-yl)benzamide]
0.6 (≈ 0.174 µg/mL)	111 (≈ 32 µg/mL)	O=C(Nc1ncc([N+](=O)[O-])s1)c1cc2ccccc2o1 [Analogue 72, N-(5-Nitrothiazol-2-yl)benzofuran-2-carboxamide]
3.4 (≈ 1.14 µg/mL)	23.9 (≈ 8.01 µg/mL)	O=C(Nc1ncc([N+](=O)[O-])s1)c1ccc(F)cc1C(F)(F)F [Analogue 35, 4-Fluoro-N-(5-nitrothiazol-2-yl)-2-(trifluoromethyl)benzamide]
1.2 (≈ 0.385 µg/mL)	4.7 (≈ 1.51 µg/mL)	O=C(Nc1ncc([N+](=O)[O-])s1)c1cc(F)c(F)c(F)c1F [Analogue 15, 2,3,4,5-Tetrafluoro-N-(5-nitrothiazol-2-yl)benzamide]
4.1 (≈ 1.12 µg/mL)	36.5 (≈ 10 µg/mL)	N#Cc1cccc(C(=O)Nc2ncc([N+](=O)[O-])s2)c1 [Analogue 20, 3-Cyano-N-(5-nitrothiazol-2-yl)benzamide]
9.1 (≈ 2.5 µg/mL)	43.8 (≈ 12 µg/mL)	N#Cc1ccc(C(=O)Nc2ncc([N+](=O)[O-])s2)cc1 [Analogue 21, 4-Cyano-N-(5-nitrothiazol-2-yl)benzamide]
0.7 (≈ 0.2 µg/mL)	14 (≈ 3.99 µg/mL)	O=C(Nc1ncc([N+](=O)[O-])s1)c1c(F)cccc1F [Analogue 11, 2,6-Difluoro-N-(5-nitrothiazol-2-yl)benzamide]
3 (≈ 1.01 µg/mL)	94.8 (≈ 32 µg/mL)	O=C(Nc1ncc([N+](=O)[O-])s1)c1ccc(-c2ccsc2)s1 [Analogue 82, N-(5-Nitrothiazol-2-yl)-2,3′-bithiophene-5-carboxamide]
1.3 (≈ 0.363 µg/mL)	7.2 (≈ 2.01 µg/mL)	COc1cccc(C(=O)Nc2ncc([N+](=O)[O-])s2)c1 [Analogue 29, 3-Methoxy-N-(5-nitrothiazol-2-yl)benzamide]
1.2 (≈ 0.364 µg/mL)	4.9 (≈ 1.49 µg/mL)	O=C(Nc1ncc([N+](=O)[O-])s1)c1cc(F)c(F)c(F)c1 [Analogue 13, 3,4,5-Trifluoro-N-(5-nitrothiazol-2-yl)benzamide]
1.8 (≈ 0.503 µg/mL)	17.9 (≈ 5 µg/mL)	COc1ccccc1C(=O)Nc1ncc([N+](=O)[O-])s1 [Analogue 28, 2-Methoxy-N-(5-nitrothiazol-2-yl)benzamide]
4.9 (≈ 1.49 µg/mL)	9.9 (≈ 3 µg/mL)	O=C(Nc1ncc([N+](=O)[O-])s1)c1c(F)cc(F)cc1F [Analogue 12, 2,4,6-Trifluoro-N-(5-nitrothiazol-2-yl)benzamide]
7.8 (≈ 2.51 µg/mL)	12.4 (≈ 3.98 µg/mL)	O=C(Nc1ncc([N+](=O)[O-])s1)c1ccc(-c2ccoc2)s1 [Analogue 83, 5-(Furan-3-yl)-N-(5-nitrothiazol-2-yl)thiophene-2-carboxamide]
0.9 (≈ 0.313 µg/mL)	–	COc1cc(C(F)(F)F)ccc1C(=O)Nc1ncc([N+](=O)[O-])s1 [Analogue 32, 2-Methoxy-N-(5-nitrothiazol-2-yl)-4-(trifluoromethyl)benzamide]
3.5 (≈ 0.753 µg/mL)	13.9 (≈ 2.99 µg/mL)	CCCC(=O)Nc1ncc([N+](=O)[O-])s1 [Analogue 49, N-(5-Nitrothiazol-2-yl)butyramide]
2.4 (≈ 0.757 µg/mL)	102 (≈ 32 µg/mL)	O=C(Nc1ncc([N+](=O)[O-])s1)c1ccc(-c2ccccc2)o1 [Analogue 65, N-(5-Nitrothiazol-2-yl)-5-phenylfuran-2-carboxamide]
2.8 (≈ 1.11 µg/mL)	20.2 (≈ 8.02 µg/mL)	O=C(Nc1ncc([N+](=O)[O-])s1)c1cc(Br)c(Br)o1 [Analogue 63, 4,5-Dibromo-N-(5-nitrothiazol-2-yl)furan-2-carboxamide]
1.6 (≈ 0.488 µg/mL)	13.1 (≈ 4 µg/mL)	O=C(Nc1ncc([N+](=O)[O-])s1)c1ccc(-c2ccoc2)o1 [Analogue 70, N-(5-Nitrothiazol-2-yl)-2,3′-bifuran-5-carboxamide]
5.2 (≈ 1.51 µg/mL)	20.7 (≈ 6 µg/mL)	O=C(Nc1ncc([N+](=O)[O-])s1)c1sccc1Cl [Analogue 78, 3-Chloro-N-(5-nitrothiazol-2-yl)thiophene-2-carboxamide]
1.5 (≈ 0.486 µg/mL)	2.3 (≈ 0.746 µg/mL)	O=C(Nc1ncc([N+](=O)[O-])s1)c1cc(Cl)sc1Cl [Analogue 75, 2,5-Dichloro-N-(5-nitrothiazol-2-yl)thiophene-3-carboxamide]
6.2 (≈ 1.99 µg/mL)	99.6 (≈ 32 µg/mL)	O=C(Nc1ncc([N+](=O)[O-])s1)c1ccc(-c2ccsc2)o1 [Analogue 71, N-(5-Nitrothiazol-2-yl)-5-(thiophen-3-yl)furan-2-carboxamide]
1.5 (≈ 0.5 µg/mL)	24 (≈ 8 µg/mL)	O=C(Nc1ncc([N+](=O)[O-])s1)c1ccc(-c2cccc(F)c2)o1 [Analogue 67, 5-(3-Fluorophenyl)-N-(5-nitrothiazol-2-yl)furan-2-carboxamide]
1.1 (≈ 0.387 µg/mL)	17.1 (≈ 6.01 µg/mL)	O=C(Nc1ncc([N+](=O)[O-])s1)c1cc(C(F)(F)F)ccc1Cl [Analogue 39, 2-Chloro-N-(5-nitrothiazol-2-yl)-5-(trifluoromethyl)benzamide]
0.8 (≈ 0.243 µg/mL)	9.9 (≈ 3 µg/mL)	O=C(Nc1ncc([N+](=O)[O-])s1)c1cc(F)c(F)cc1F [Analogue 14, 2,4,5-Trifluoro-N-(5-nitrothiazol-2-yl)benzamide]
